Measured values published in patent EP4578449A1, “PHARMACEUTICAL COMBINATION OF FAK INHIBITOR AND MICROTUBULE INHIBITOR AND USE THEREOF” (Inxmed (Nanjing) Co., Ltd., priority 2022, dated 2024).

How the values were obtained:
[1] = test system: breast cancer 4T1 cells; experiment: Subcutaneous allograft tumor model of breast cancer 4T1 cells in BALB/c mice; type: in vivo
Source text: Mice: Female BALB/c mice aged 6-8 weeks were purchased from SHANGHAI SLAC LABORATORY ANIMAL CO. LTD. The assay began after the animals were adapted to the assay environment upon arrival. The animals were kept in IVC (independent ventilation system) cages (5 per cage) in an SPF animal room. All cages, padding and drinking water must be sterilized before use. All assay personnel should wear protective clothing and latex gloves when operating in the animal room. Cages, feed and drinking water were replaced twice a week. The feeding environment and lighting conditions were as follows: • Temperature: 20-26 °C • Humidity: 40-70% • Lighting period: 12 hours light, 12 hours no light • Cages: Made of polycarbonate, 300 mm × 180 mm × 150 mm. The padding was corn cobs, which was replaced twice a week. • Food: The assay animals had free access to food (dry pelleted food sterilized by irradiation) throughout the assay period. • Drinking water: Assay animals were free to drink sterile water. • Cage identification: The animal information card for each cage should indicate the number of animals in the cage, gender, strain, receipt date, dosing regimen, assay number, group and start date of the assay. • Animal identification: Assay animals were identified with ear tags.
Breast cancer cell 4T1 (source: Nanjing Cobioer Biotechnology Co., Ltd., catalog number: CBP60352) was maintained and passaged by INXMED (Nanjing) Co., Ltd. The cells were cultured in a monolayer in vitro in RPMI-1640 medium with 10% fetal bovine serum in a 37 °C, 5% CO2 incubator. Trypsin-EDTA was used for routine digestion and passage treatment two to three times a week. When the cells were in the exponential growth phase and the adherent confluence reached 80%-90%, the cells were harvested and plated.
0.1 mL of cell suspension containing 2 x 10^5 cells was subcutaneously inoculated on the right back of each mouse. When the tumor volume reached ~52 mm^3 (10th day after cell inoculation), the mice were randomly divided into groups for drug administration according to the tumor volume. Table 9. Dosing regimen of the test substance in 4T1 mouse transplant tumor model
The formulation and any modifications of this assay protocol had been assessed and approved by the IACUC of ArrayBridge. The use and welfare of assay animals were carried out in accordance with AAALAC regulations. The health status and mortality of animals were monitored daily, with routine checks including observation of tumor growth and the impact of drug treatment on the animals' daily behavior, such as activity, food and water intake (estimated by visual inspection), changes in body weight, physical signs, or any other abnormalities. The number of animal deaths and side effects in each group were recorded based on the number of animals in each group.
If the animal's health condition continued to deteriorate, or if the tumor volume exceeded 3,000 mm^3, or there was a serious disease or pain, euthanasia should be carried out. In the following cases, the veterinarian was notified and euthanasia was performed: obvious weight loss, i.e., weight loss greater than 20%; inability to freely eat and drink; the average tumor volume of the control group reached 2000 mm^3, the assay was terminated.
Tumor diameters were measured three times a week using calipers. The tumor volume was calculated using the formula: V = 0.5 × a × b^2, where a and b represent the long and short diameters of the tumor, respectively.
Based on the tumor volume on the first day after grouping, the tumor growth inhibition rate TGI (%) was calculated according to the following formula: TGI (%) = [1 - (average tumor volume of a treatment group - average tumor volume of the treatment group at the beginning of treatment) / (average tumor volume of the solvent control group - average tumor volume of the solvent control group at the beginning of treatment)] × 100%. […]

[2] = test system: colon cancer CT26 cells; experiment: CCK8 cell viability assay, Docetaxel with or without IN10018; type: cell-based; details: Mus musculus, 72 hours, Docetaxel alone
Protocol: CT26 cells were cultured with RPMI-1640 (Shanghai Basalmedia, catalog number: L210KJ, batch number: F210916) + 10% FBS (Gibco, catalog number: 10099-141c, batch number: 2158737cp), and passaged twice. When the cells were in good condition, they were placed in a 96-well plate, 3000 cells/well. After the cells were spread for 24 hours, the culture medium containing Docetaxel was added. 10 drug concentrations were set. The first concentration was 30 µM, which was serially diluted 3-fold, and the last one was the control, with the drug concentration of 0. Three compound wells were set for each drug concentration. At the same time, another group of cells was established with the same drug concentration as that in the above method. The difference was that: 5 µM IN10018 was added to each well, the drugs were mixed, and the plate was cultured in a 5% CO2 incubator at 37 °C for 72 hours.
After 72 hours of drug action, the cells were observed under a microscope. 10 µl of CCK8 detection reagent (Cellorlab, classification number: CX001M, batch number: 2571100) was added to each well, and the plate was incubated in a 5% CO2 incubator at 37 °C for 2-4 hours. Then the plate was read using microplate reader OD450 ([…]).

[3] = test system: SK-OV-3 cells; experiment: FAK silencing combined with Docetaxel, Annexin V apoptosis by flow cytometry; type: cell-based; details: SK-OV-3 cells transfected with FAK siRNA 50 nM for 24 hours, then 0.3 µM or 1 µM Docetaxel 48 hours; FAK silencing group compared with control siRNA group
[4] = test system: SK-OV-3 cells; experiment: FAK silencing combined with Docetaxel, Calreticulin (ICD target) by flow cytometry; type: cell-based; details: SK-OV-3 cells transfected with FAK siRNA 50 nM for 24 hours, then 1 µM Docetaxel 48 hours; vs control siRNA
Protocol: • 1. FAK silencing combined with Docetaxel promotes apoptosis of ovarian cancer cells […] The siRNA technology was used in the in vitro assay to reduce the expression level of FAK, and combined with Docetaxel for 48 hours; flow cytometry was used to detect apoptosis in control (DMSO) and FAK silenced cells • 2. FAK silencing combined with Docetaxel can effectively promote the production of ICD in ovarian cancer cells SK-OV-3 The siRNA technology was used in the in vitro assay to reduce the expression level of FAK, and combined with Docetaxel for 48 hours. Flow cytometry was used to detect the expression of Calreticulin, the main target of ICD.
Assay antibodies: recombinant Alexa Fluor® 647 fluorescent Anti-Calreticulin antibody (Abcam, ab196159), Annexin V apoptosis detection kit (Invitrogen, A35110).
FAK siRNA was provided by Gene Pharma, and the sequence is shown in the following table: • F: […]; • R: […]
• 1. […] After the transfection for 24 hours, the cells were treated with 0.3 µM or 1 µM of Docetaxel for 48 hours, respectively. The cells were stained using Annexin V kit and detected by flow cytometry. The apoptotic values were counted, compared with those of the control group, and plotted using Graphpad 8.0. […] The cells were fluorescent stained with Calreticulin antibody, and the staining results were analyzed by flow cytometry.

With `CC(=O)O[C@@]12CO[C@@H]1C[C@H](O)[C@@]1(C)C(=O)[C@H](O)C3=C(C)[C@@H](OC(=O)[C@H](O)[C@@H](NC(=O)OC(C)(C)C)c4ccccc4)C[C@@](O)([C@@H](OC(=O)c4ccccc4)[C@H]21)C3(C)C` [Docetaxel] the “Tumor volume on day 0” value ([1]; baseline at grouping (10th day after inoculation), mean ± standard error, 6 mice per group) was 51.1 ± 13.2 mm^3, the TGI ([1]; day 21 after administration, vs control group, DTX 10 mg/kg i.p. BIW, IN10018 25 mg/kg p.o. QD, MAX10181 120 mg/kg p.o. BID) was 14.9% and the “Tumor volume on day 21” value ([1]; day 21 after administration, DTX 10 mg/kg i.p. BIW, IN10018 25 mg/kg p.o. QD, MAX10181 120 mg/kg p.o. BID, mean ± standard error) was 1818.7 ± 644.0 mm^3. The IC50 [2] was 0.19 µM, the “apoptosis (Annexin V kit)” value [3] was “significantly enhanced” and the “release and exposure of Calreticulin” value [4] was “significantly enhanced”.
